{"source": "patent US20040023841A1", "about": "“Combinatorial method for rapid screening of drug delivery formulations” (priority 2003, published 2004)", "key": {"[1]": {"experiment": "Permeability measured by traditional experiments (macroscopic diffusion cells)", "format": "in vitro ADME", "experimental": "(§1) The following experiments were performed to assess the usefulness of a method, which determines the loss of a test substance from a formulation over time. Experiments were performed to assess whether this method can be used for estimation of skin permeability to drugs. For these studies, phosphate buffered saline was used as a model formulation. […] Ten holes were drilled into the disc and each hole was about 2 mm wide. The disc was then placed on the SC prepared from human skin. Solutions of nine different drugs in PBS were placed in various holes. The concentration of drugs in the solutions were measured at time zero. The drugs were allowed to remain in contact with the skin for 24 hours. Samples were taken from the holes at the end of 24 hours and then analyzed using a liquid scintillation counter. The amount of drug lost from the donor hole was calculated. Permeability measurements of the same drugs were performed using conventional methods that use macroscopic diffusion cells."}, "[2]": {"experiment": "Loss of drug from donor hole of Teflon disc placed on stratum corneum", "format": "in vitro ADME", "conditions": "drug in PBS, 2 mm hole, human SC, 24 hours contact, liquid scintillation counting", "experimental": "as §1"}, "[3]": {"experiment": "Conductivity enhancement of skin, 10x10 High Throughput array", "format": "in vitro ADME, pig", "conditions": "10x10 array, 0-2% (w/v) in PBS, up to 25 hrs, n=4", "experimental": "This array is built as a pattern of 10×10 matrix. This corresponds to 100 test wells, each well 3 mm in diameter. The formulations to be tested are filled in the donor compartments. Each formulation is filled in 4 wells and each well can hold about 85 μL of the test formulation. Two 22 G 1½ needles are used as electrodes to measure current across the skin. One needle is stuck into the dermis and acts as the common electrode while the other needle is sequentially placed in each well to measure current. Current measurements are made across the skin periodically over a span of 25 hrs. […] The conductivity enhancement for a given formulation at time ‘t’ is then calculated as [formula] where It is the current across the skin at time ‘t’ and I0 is the current across the skin at time 0. […] The error bars correspond to the standard deviations. (n=4)."}, "[4]": {"experiment": "Transport enhancement of radiolabeled mannitol into skin, Franz diffusion cells", "format": "in vitro ADME, pig", "conditions": "Franz diffusion cell, 0-2% (w/v) in PBS, 7 hrs", "experimental": "The skin was incubated in the cells for 7 hrs. At the end of 7 hrs the skin was removed from the cell and dissolved in 0.5M Solvable, a gel and tissue solubilizer from Packard Chemicals, at 60° C. overnight. […] The enhancement of transdermal mannitol transport due to the formulations was calculated using the equation, E^T=CF/CC, where CF is the radiation count for a particular formulation and CC is the radiation count for the control which in this case is simply PBS with radiolabeled mannitol but no surfactant."}, "[5]": {"experiment": "Conductivity enhancement of skin, Franz diffusion cells", "format": "in vitro ADME, pig", "conditions": "Franz diffusion cell, 0-2% in PBS, 24 hours", "experimental": "A small stir bar and an Ag/AgCl disk electrode ([…] In-vivo Metrics) were added to the receiver chamber. In addition, the receiver chamber was filled with PBS. Pigskin was thawed and was mounted on the diffusion cell with the epidermis side facing up. The donor and the receiver compartments were clamped making sure there were no bubbles in the receiver chamber. Before each experiment, structural integrity of the skin was confirmed by measuring its conductivity. Skin samples with a resistivity less than 20 Kohm-cm^2 were assumed to be defective and not used. Skin conductivity was measured throughout the experiment to assess the effect of the formulation on skin structure. […] Each formulation was prepared in PBS. Current across the skin was measured over a period of 24 hours. The enhancement of skin conductivity was calculated as [formula] where It is the current across skin at time t, I0 being the current across skin at time 0."}, "[6]": {"experiment": "Transport enhancement of radiolabelled mannitol into skin, 10x10 High Throughput array", "format": "in vitro ADME, pig", "conditions": "10x10 array, 0-2% (w/v) in PBS, 7 hrs", "experimental": "Radiolabelled mannitol was added to all formulations prepared in PBS at a concentration of 10 μCi/mL. The donor compartments were filled with these formulations with each formulation filled in 4 wells. The skin was then incubated for 7 hrs. The solutions from the donor compartment were removed at the end of incubation period. The skin was then gently rinsed to free any mannitol that could be sticking to the surface of the skin. The skin was then cut and dissolved in 0.5 M Solvable, a tissue and gel solubilizer from Packard Chemicals, at 60° C. overnight. […] The transport enhancement at different test formulations is then calculated as [formula] where CF is the radiation count for a particular test formulation and CC is the radiation count for the control i.e. PBS alone without any enhancer."}, "[7]": {"experiment": "Transport enhancement of radiolabelled mannitol into skin, 5x5 High Throughput array", "format": "in vitro ADME, pig", "conditions": "5x5 array, 0-2% (w/v) in PBS, 7 hrs", "experimental": "Screening of the formulations is performed using pigskin. The wells in the receiver plate are filled with PBS. The skin is placed on the receiver plate with the stratum corneum (SC) facing the donor plate. The donor plate is then placed on the skin and the entire assembly is clamped tightly using four screws. A mild vacuum is then applied to remove any excess PBS that may be pushed in to the wells in the receiver plate. Radiolabelled mannitol was added to all formulations prepared in PBS at a concentration of 10 μCi/mL. The donor compartments were filled with these formulations each formulation was filled in 1 well. The skin was then incubated for 7 hrs. The solutions from the donor compartment were removed at the end of incubation period. The skin was then gently rinsed to free any mannitol that could be sticking to the surface of the skin. The skin was then cut and dissolved in 0.5 M Solvable, a tissue and gel solubilizer from Packard Chemicals at 60° C. overnight. […] The transport enhancement at different test formulations is then calculated as [formula] where CF is the radiation count for a particular test formulation and CC is the radiation count for the control i.e. PBS alone without any enhancer."}, "[8]": {"experiment": "Conductivity enhancement of skin, 5x5 High Throughput array", "format": "in vitro ADME, pig", "conditions": "5x5 array, 0-2% (w/v) in PBS, up to 25 hrs", "from_the_text": "This array is built as a pattern of a 5×5 matrix. This corresponds to 25 test wells, each well 7.5 mm in diameter. It consists of two polycarbonate plates each 0.5 inches thick. The top plate (donor plate) has 25 through holes (wells), diameter 7.5 mm, drilled in it, each of which acts as an isolated donor chamber similar to the donor chamber in the Franz diffusion cells. The bottom plate (receiver plate) also has holes (wells) drilled in a similar pattern as the donor plate and simulates the receiver compartment of the diffusion cells. All wells are isolated from each other for all practical purposes and each well acts like an individual diffusion cell. The skin is placed between the donor and receiver plate and the plate assembly is clamped using four screws as shown in the figure.\nScreening of the formulations is performed using pigskin. The wells in the receiver plate are filled with PBS. The skin is placed on the receiver plate with the stratum corneum (SC) facing the donor plate. The donor plate is then placed on the skin and the entire assembly is clamped tightly using four screws. […]\nThe formulations to be tested are filled in the donor compartments. […] The current, measured at 100 Hz and 143 mVpp, varied between 1 μA at time 0 to 25-30 μA at time 25 hrs.\nThe conductivity enhancements at time t″ is then calculated as [formula] […]"}}, "data": [{"smiles": "CCCCCCCCCCCCCCCCCCO", "note": "[Octadecanol]", "values": [{"measurement": "Papp", "setting": "[1]", "result": 25, "unit": "×10⁻⁶ cm/s"}, {"measurement": "% Drug Lost from the Hole", "setting": "[2]", "result": 77, "unit": "%"}]}, {"smiles": "CCCCCCCCO", "note": "[Octanol]", "values": [{"measurement": "Papp", "setting": "[1]", "result": 19.4, "unit": "×10⁻⁶ cm/s"}, {"measurement": "% Drug Lost from the Hole", "setting": "[2]", "result": 47, "unit": "%"}]}, {"smiles": "c1ccc2ccccc2c1", "note": "[Napthalene]", "values": [{"measurement": "% Drug Lost from the Hole", "setting": "[2]", "result": 47, "unit": "%"}]}, {"smiles": "CCCCCCCCCCCCOS(=O)(=O)[O-].[Na+]", "note": "[SLS, Sodium Lauryl Sulfate]", "values": [{"measurement": "Conductivity enhancement (It/I0)", "setting": "[3]", "result": "increases with increasing SLS or TDAB concentration and reaches a maximum after which it starts decreasing"}, {"measurement": "Transport enhancement (amount of mannitol transported, CF/CC)", "setting": "[4]", "result": "increases monotonously as a function of the surfactant concentration"}, {"measurement": "Conductivity enhancement (It/I0)", "setting": "[5]", "result": "increases as a function of the SLS or TDAB concentration and reaches a maximum"}, {"measurement": "Transport enhancement (amount of mannitol transported, CF/CC)", "setting": "[6]", "result": "increases monotonously as a function of the surfactant concentration"}, {"measurement": "Transport enhancement (amount of mannitol transported, CF/CC)", "setting": "[7]", "result": "increases monotonously as a function of the surfactant concentration"}, {"measurement": "Conductivity enhancement (It/I0)", "setting": "[8]", "result": "increases as a function of the SLS or TDAB concentration and reaches a maximum"}]}, {"smiles": "CC(=O)[C@H]1CC[C@H]2[C@@H]3CCC4=CC(=O)CC[C@]4(C)[C@H]3CC[C@]12C", "note": "[Progesterone]", "values": [{"measurement": "Papp", "setting": "[1]", "result": 5.56, "unit": "×10⁻⁶ cm/s"}, {"measurement": "% Drug Lost from the Hole", "setting": "[2]", "result": 44, "unit": "%"}]}, {"smiles": "CCCCCCO", "note": "[Hexanol]", "values": [{"measurement": "% Drug Lost from the Hole", "setting": "[2]", "result": 31, "unit": "%"}]}, {"smiles": "C[C@]12CC[C@H]3[C@@H](CCC4=CC(=O)CC[C@@]43C)[C@@H]1CC[C@@H]2O", "note": "[Testosterone]", "values": [{"measurement": "% Drug Lost from the Hole", "setting": "[2]", "result": 24, "unit": "%"}]}, {"smiles": "C[C@]12CCC(=O)C=C1CC[C@@H]1[C@@H]2[C@@H](O)C[C@]2(C=O)[C@@H](C(=O)CO)CC[C@@H]12", "note": "[Aldosterone]", "values": [{"measurement": "Papp", "setting": "[1]", "result": 0.00833, "unit": "×10⁻⁶ cm/s"}, {"measurement": "% Drug Lost from the Hole", "setting": "[2]", "result": 9, "unit": "%"}]}]}
